The source of these data is patent US11857663B2, “Stable silk protein fragment compositions” (Evolved By Nature, Inc., priority 2013, dated 2024).

A short description of this data set: HPLC chromatograms of samples comprising vitamin C (degradation products). It is filed as physicochemical. Particulars: after 1 hour at ambient conditions without chemical stabilization. On the procedure:
FIGS. 36A and 36B show two HPLC chromatograms from samples comprising vitamin C. […] No degradation products were visible. FIG. 59 is a table summarizing the vitamin C concentration in silk protein fragment-films (2% silk films air dried at RT) of the present disclosure. In FIG. 59 processing conditions included 100° C. extraction for 20 min, RT rinse, LiBr in 60° C. oven for 4-6 hours. FIG. 60 is arable summarizing the stability of vitamin C in chemically stabilized solutions. FIGS. 89A-89B are tables summarizing vitamin C stability in SPF gels without chemical stabilizers as compared to chemically stabilized vitamin C in competitive anti-aging skincare products. […] Without wishing to be bound by theory, it appears there is a relationship between vitamin C concentration, silk concentration, and gelation. An increase in vitamin C at a given concentration of silk will result in a longer time to gelation or inhibit gelation. This may be due to the vitamin C molecule physically blocking interaction between silk protein fragments or cross-linking of silk protein.

For the compound `O=C1O[C@H]([C@@H](O)CO)C(O)=C1O` [vitamin C, L-ascorbic acid], the “degradation products of vitamin C” value is reported as “degradation products are visible”.
